Test results as given in the supplement of paper PMC11061612.

How the values were obtained:
AZD7648 = compound: Cc1cc2ncnn2cc1Nc1ncc2c(n1)n(C1CCOCC1)c(=O)n2C [AZD7648]; details: max 10 µM
Procedure, shortened: (§1)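 Following 24 hours at 37°C and 5% CO2, cancer cell lines in 1536-well plates with 7.5 μl DMEM/F12 or RPMI and 10% FBS were dosed for 72 hours, final DMSO typically being 0.2%. CellTiter-Glo 2.0 luminescence, scaled between blank-well and DMSO-well means, gave the viability readout. Dose responses were fitted to a two-parameter logistic curve with a non-linear mixed effects model, and the single-agent IC50 was derived from this fit.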

AZD5363 = compound: C1CN(CCC1(C(=O)N[C@@H](CCO)C2=CC=C(C=C2)Cl)N)C3=NC=NC4=C3C=CN4 [AZD5363]; details: max 10 µM
Procedure, shortened: as §1

AZD2811 = compound: CCN(CCO)CCCOc1ccc2c(Nc3cc(CC(=O)Nc4cccc(F)c4)[nH]n3)ncnc2c1 [AZD2811]; details: max 1 µM
Procedure, shortened: as §1

AZD8186 = compound: C[C@@H](Nc1cc(F)cc(F)c1)c1cc(C(=O)N(C)C)cc2c(=O)cc(N3CCOCC3)oc12 [AZD8186]; details: max 10 µM
Procedure, shortened: as §1

SRA737 = compound: N#Cc1cnc(Nc2cc(NC[C@H]3CNCCO3)c(C(F)(F)F)cn2)cn1 [SRA737]; details: max 10 µM
Procedure, shortened: as §1

AZD0156 = compound: CN(C)CCCOc1ccc(-c2ccc3ncc4c(c3c2)n(C2CCOCC2)c(=O)n4C)cn1 [AZD0156]; details: max 3 µM
Procedure, shortened: as §1

AZD5153 = compound: COc1nnc2ccc(N3CCC(c4ccc(OCCN5CCN(C)C(=O)[C@H]5C)cc4)CC3)nn12 [AZD5153]; details: max 1 µM
Procedure, shortened: as §1

AZD4320 = compound: CN(CC[C@H](CSC1=CC=CC=C1)NC2=C(C=C(C=C2)S(=O)(=O)NC(=O)C3=CC=C(C=C3)N4CCC(CC4)[C@H](C5=CC=CC=C5C6=CC=C(C=C6)Cl)O)S(=O)(=O)C(F)(F)F)CCO [AZD4320]; details: max 1 µM
Procedure, shortened: as §1

Etoposide = compound: COc1cc([C@@H]2c3cc4c(cc3[C@@H](O[C@@H]3O[C@@H]5CO[C@@H](C)O[C@H]5[C@H](O)[C@H]3O)[C@H]3COC(=O)[C@H]23)OCO4)cc(OC)c1O [Etoposide]; details: max 10 µM
Procedure, shortened: as §1

Gefitinib = compound: COc1cc2ncnc(Nc3ccc(F)c(Cl)c3)c2cc1OCCCN1CCOCC1 [Gefitinib]; details: max 10 µM
Procedure, shortened: as §1

5-Fluorouracil = compound: O=c1[nH]cc(F)c(=O)[nH]1 [5-Fluorouracil]; details: max 20 µM
Procedure, shortened: as §1

Prexasertib = compound: COc1cccc(OCCCN)c1-c1cc(Nc2cnc(C#N)cn2)n[nH]1 [Prexasertib]; details: max 1 µM
Procedure, shortened: as §1

Olaparib = compound: O=C(c1cc(Cc2n[nH]c(=O)c3ccccc23)ccc1F)N1CCN(C(=O)C2CC2)CC1 [Olaparib]; details: max 10 µM
Procedure, shortened: as §1

SN-38 = compound: CCc1c2c(nc3ccc(O)cc13)-c1cc3c(c(=O)n1C2)COC(=O)[C@]3(O)CC [SN-38]; details: max 0.3 µM
Procedure, shortened: as §1

Trametinib = compound: CC(=O)Nc1cccc(-n2c(=O)n(C3CC3)c(=O)c3c(Nc4ccc(I)cc4F)n(C)c(=O)c(C)c32)c1 [Trametinib]; details: max 1 µM
Procedure, shortened: as §1

Gemcitabine = compound: Nc1ccn([C@@H]2O[C@H](CO)[C@@H](O)C2(F)F)c(=O)n1 [Gemcitabine]; details: max 0.3 µM
Procedure, shortened: as §1

Taselisib = compound: Cc1nc(-c2cn3c(n2)-c2ccc(-c4cnn(C(C)(C)C(N)=O)c4)cc2OCC3)n(C(C)C)n1 [Taselisib]; details: max 10 µM
Procedure, shortened: as §1

Savolitinib = compound: C[C@@H](c1ccc2nccn2c1)n1nnc2ncc(-c3cnn(C)c3)nc21 [Savolitinib]; details: max 1 µM
Procedure, shortened: as §1

AZD5991 = compound: Cc1c2c(nn1C)CSCc1cc(n(C)n1)CSc1cc(c3ccccc3c1)OCCCc1c(C(=O)O)n(C)c3c-2c(Cl)ccc13 [AZD5991]; details: max 1 µM
Procedure, shortened: as §1

Lapatinib = compound: CS(=O)(=O)CCNCc1ccc(-c2ccc3ncnc(Nc4ccc(OCc5cccc(F)c5)c(Cl)c4)c3c2)o1 [Lapatinib]; details: max 10 µM
Procedure, shortened: as §1

Palbociclib = compound: CC(=O)c1c(C)c2cnc(Nc3ccc(N4CCNCC4)cn3)nc2n(C2CCCC2)c1=O [Palbociclib]; details: max 10 µM
Procedure, shortened: as §1

MK-2206 = compound: NC1(c2ccc(-c3nc4ccn5c(=O)[nH]nc5c4cc3-c3ccccc3)cc2)CCC1 [MK-2206]; details: max 10 µM
Procedure, shortened: as §1

Paclitaxel = compound: CC(=O)O[C@H]1C(=O)[C@@]2(C)[C@H]([C@H](OC(=O)c3ccccc3)[C@]3(O)C[C@H](OC(=O)[C@H](O)[C@@H](NC(=O)c4ccccc4)c4ccccc4)C(C)=C1C3(C)C)[C@]1(OC(C)=O)CO[C@@H]1C[C@@H]2O [Paclitaxel]; details: max 3 µM
Procedure, shortened: as §1

AZD6738 = compound: C[C@@H]1COCCN1C2=NC(=NC(=C2)C3(CC3)[S@](=N)(=O)C)C4=C5C=CNC5=NC=C4 [AZD6738]; details: max 10 µM
Procedure, shortened: as §1

Dasatinib = compound: CC1=C(C(=CC=C1)Cl)NC(=O)C2=CN=C(S2)NC3=CC(=NC(=N3)C)N4CCN(CC4)CCO [Dasatinib]; details: max 2 µM
Procedure, shortened: as §1

Venetoclax = compound: CC1(C)CCC(CN2CCN(c3ccc(C(=O)NS(=O)(=O)c4ccc(NCC5CCOCC5)c([N+](=O)[O-])c4)c(Oc4cnc5[nH]ccc5c4)c3)CC2)=C(c2ccc(Cl)cc2)C1 [Venetoclax]; details: max 1 µM
Procedure, shortened: as §1

[1] = compound: O=C(Nc1ccc2[nH]nc(-c3ccncc3)c2c1)[C@@H]1CCN(CC(=O)N2CCN(c3ccc(-c4ncccn4)cc3)CC2)C1; details: max 5 µM
Procedure, shortened: as §1

Doxorubicin = compound: COc1cccc2c1C(=O)c1c(O)c3c(c(O)c1C2=O)C[C@@](O)(C(=O)CO)C[C@@H]3O[C@H]1C[C@H](N)[C@H](O)[C@H](C)O1 [Doxorubicin]; details: max 1 µM
Procedure, shortened: as §1

Crizotinib = compound: C[C@@H](Oc1cc(-c2cnn(C3CCNCC3)c2)cnc1N)c1c(Cl)ccc(F)c1Cl [Crizotinib]; details: max 10 µM
Procedure, shortened: as §1

AZD1390 = compound: CC(C)n1c(=O)n(C)c2cnc3cc(F)c(-c4ccc(OCCCN5CCCCC5)nc4)cc3c21 [AZD1390]; details: max 0.3 µM
Procedure, shortened: as §1

AZD1775 = compound: C=CCn1c(=O)c2cnc(Nc3ccc(N4CCN(C)CC4)cc3)nc2n1-c1cccc(C(C)(C)O)n1 [AZD1775]; details: max 3 µM
Procedure, shortened: as §1

Selumetinib = compound: Cn1cnc2c(F)c(Nc3ccc(Br)cc3Cl)c(C(=O)NOCCO)cc21 [Selumetinib]; details: max 10 µM
Procedure, shortened: as §1

SG3199 = compound: CC1=CN2[C@@H](C1)C=NC3=CC(=C(C=C3C2=O)OC)OCCCCCOC4=C(C=C5C(=C4)N=C[C@@H]6CC(=CN6C5=O)C)OC [SG3199]; details: max 0.001 µM
Procedure, shortened: as §1

Carboplatin = compound: C1CC(C1)(C(=O)[O-])C(=O)[O-].N.N.[Pt+2] [Carboplatin]; details: max 10 µM
Procedure, shortened: as §1

Alisertib = compound: COc1cc(Nc2ncc3c(n2)-c2ccc(Cl)cc2C(c2c(F)cccc2OC)=NC3)ccc1C(=O)O [Alisertib]; details: max 10 µM
Procedure, shortened: as §1

| Cell Line | IC50, cell viability 72 h (AZD7648) [nM] | IC50, cell viability 72 h (AZD5363) [nM] | IC50, cell viability 72 h (AZD2811) [nM] | IC50, cell viability 72 h (AZD8186) [nM] | IC50, cell viability 72 h (SRA737) [nM] | IC50, cell viability 72 h (AZD0156) [nM] | IC50, cell viability 72 h (AZD5153) [nM] | IC50, cell viability 72 h (AZD4320) [nM] | IC50, cell viability 72 h (Etoposide) [nM] | IC50, cell viability 72 h (Gefitinib) [nM] | IC50, cell viability 72 h (5-Fluorouracil) [nM] | IC50, cell viability 72 h (Prexasertib) [nM] | IC50, cell viability 72 h (Olaparib) [nM] | IC50, cell viability 72 h (SN-38) [nM] | IC50, cell viability 72 h (Trametinib) [nM] | IC50, cell viability 72 h (Gemcitabine) [nM] | IC50, cell viability 72 h (Taselisib) [nM] | IC50, cell viability 72 h (Savolitinib) [nM] | IC50, cell viability 72 h (AZD5991) [nM] | IC50, cell viability 72 h (Lapatinib) [nM] | IC50, cell viability 72 h (Palbociclib) [nM] | IC50, cell viability 72 h (MK-2206) [nM] | IC50, cell viability 72 h (Paclitaxel) [nM] | IC50, cell viability 72 h (AZD6738) [nM] | IC50, cell viability 72 h (Dasatinib) [nM] | IC50, cell viability 72 h (Venetoclax) [nM] | IC50, cell viability 72 h [1] [nM] | IC50, cell viability 72 h (Doxorubicin) [nM] | IC50, cell viability 72 h (Crizotinib) [nM] | IC50, cell viability 72 h (AZD1390) [nM] | IC50, cell viability 72 h (AZD1775) [nM] | IC50, cell viability 72 h (Selumetinib) [nM] | IC50, cell viability 72 h (SG3199) [nM] | IC50, cell viability 72 h (Carboplatin) [nM] | IC50, cell viability 72 h (Alisertib) [nM] |
| --- | --- | --- | --- | --- | --- | --- | --- | --- | --- | --- | --- | --- | --- | --- | --- | --- | --- | --- | --- | --- | --- | --- | --- | --- | --- | --- | --- | --- | --- | --- | --- | --- | --- | --- | --- |
| KARPAS-299 (T-Cell Non-Hodgkin's Lymphoma) | > 10000 | > 10000 | > 1000 | > 10000 | 1130 | > 3000 | 115 | > 1000 | 3370 | > 10000 | 4460 | 5.15 | > 10000 | 35.7 | > 1000 | 26.6 | > 10000 | > 1000 | 326 | > 10000 | > 10000 | > 10000 | 30.6 | 698 | > 2000 | 708 | > 5000 | 523 | 846 | > 300 | 459 | > 10000 | > 1 | > 10000 | > 10000 |
| KYSE-450 (Esophageal Squamous Cell Carcinoma) | > 10000 | > 10000 | > 1000 | > 10000 | > 10000 | > 3000 | > 1000 | > 1000 | > 10000 | > 10000 | > 20000 | 226 | > 10000 | > 300 | > 1000 | > 300 | 7520 | > 1000 | > 1000 | > 10000 | > 10000 | > 10000 | 67.7 | > 10000 | > 2000 | > 1000 | > 5000 | > 1000 | > 10000 | > 300 | 614 | > 10000 | > 1 | > 10000 | > 10000 |
| LU-65 (Non-Small Cell Lung Carcinoma) | > 10000 | > 10000 | > 1000 | > 10000 | 4300 | > 3000 | > 1000 | > 1000 | > 10000 | > 10000 | > 20000 | 89.6 | > 10000 | 49.1 | 52.9 | > 300 | 3010 | > 1000 | > 1000 | > 10000 | > 10000 | > 10000 | 32.1 | 3970 | > 2000 | > 1000 | 350 | 341 | 7510 | > 300 | 770 | 1650 | > 1 | > 10000 | > 10000 |
| MIA-PaCa-2 (Pancreatic Carcinoma) | > 10000 | > 10000 | > 1000 | > 10000 | > 10000 | > 3000 | 165 | > 1000 | 2890 | > 10000 | > 20000 | 67.4 | > 10000 | 14.6 | 150 | 101 | > 10000 | > 1000 | > 1000 | > 10000 | > 10000 | > 10000 | 39.5 | 8720 | > 2000 | > 1000 | 2110 | 183 | > 10000 | > 300 | > 3000 | 3370 | > 1 | > 10000 | 3490 |
| MLMA (Other Blood Carcinomas) | > 10000 | 8830 | > 1000 | 2940 | 934 | > 3000 | 55.5 | > 1000 | 2200 | > 10000 | > 20000 | 2.19 | > 10000 | 16.3 | > 1000 | 22.8 | 982 | > 1000 | > 1000 | > 10000 | > 10000 | 1760 | 13.7 | 4310 | 548 | 272 | > 5000 | 116 | 9930 | > 300 | 144 | > 10000 | > 1 | > 10000 | 6310 |
